Data as given in patent US7511034B2, “Dialkylhydroxybenzoic acid derivatives containing metal chelating groups and their therapeutic uses” (Samsung Electronics Co., Ltd., priority 2001, dated 2009).

Assays:
[1] = test system: multilayer liposome (soybean phosphatidylcholine); experiment: Inhibition of lipid peroxidation (liposome oxidation, TBA absorbance at 532 nm); assay type: biochemical; details: liposome oxidation initiated by FeCl2, 37° C., 15 minutes; read-out: Inhibitor Concentration (IC50)
Experimental: The compounds of the present invention were tested for antioxidizing effect in terms of the repression of the radical chain reaction of a multilayer liposome.
The liposome was prepared as followings: 30 mg of commercially available soybean phosphatidylcholine (PC, Sigma Chemical Co., U.S.A.) was dissolved in 1 mL of ethanol, and 200 μL of the ethanol/PC solution was added to 10 mL of 10 mM Tris buffer including 50 mM NaCl (pH 7.0) with stirring.
The ability of a compound to inhibit oxidation of the liposome was evaluated as followings: To 400 μL of the liposomes were added the test compound (in buffer or ethanol) and histidine-FeCl3 (167:33 μM final). Oxidation was initiated by the addition of FeCl2 (33 μM final prepared in nitrogen purged water). The mixtures was shaken at 37° C. for 15 minutes. Thereafter, tubes were treated with 1 mL of 0.67% thiobabituric acid (TBA):10% trichloroacetic acid (2:1, v/v) in 0.25 N HCl solution, containing 1.5% (v/v) t-butylhydroxytoluene (BHT) to terminate oxidation. The aliquots were heated to 100° C. for 20 minutes. After ice cooling, 1 mL of chloroform was added to 1 mL supernatant from tubes and tubes were centrifuged. The absorbances of the resulting supernatant were measured at 532 nm (see: Table below).

[2] = test system: ischemic neuronal degeneration; experiment: Protection of cell damage by ischemia (in vivo), hippocampus Cresyl violet staining; parameters: species or system Mongolian gerbils (Meriones unguiculatus); details: gerbils, 60 mg/kg P.O., 4 days reperfusion; for protective effect: 5 min carotid occlusion, pre-treated groups
Experimental: Male Mongolian gerbils (Meriones unguiculatus) weighing 80-88 g were used in the present study. Each animal was medicated P.O. with vehicle, Ebselen or various test compounds (60 mg/kg in 10% DMSO), after 30 minutes ischemic injury, respectively. 20 animals were allotted into every group. The animals were placed under general anesthesia with a mixture of 2.5% isoflurane in 33% oxygen and 67% nitrous oxide. A midline ventral incision was made in the neck. Both common carotid arteries were isolated, freed of nerve fibers, and occluded using nontraumatic aneurysm clips. Complete interruption of blood flow was confirmed by observing the central artery in eyeballs using ophthalmoscope. After five minutes of occlusion, the aneurysm clips were removed from both common carotid arteries. Restoration of blood flow (reperfusion) was observed directly under the microscope. Sham-operated controls were subjected to the same surgical procedures except that common carotid arteries were not occluded. Body temperature was monitored and maintained at 37° C.±0.5° C. during surgery and during the immediate postoperative period until the animals recovered fully from anesthesia. At the designated reperfusion time (4 days), operated animals and sham animals were killed.
Animals were perfused transcardially with phosphate-buffered saline (PBS, pH 7.4) followed by 4% paraformaldehyde in 0.1 M phosphate buffer (pH 7.4) at 4 days (n=7) after surgery. The brains were removed, and postfixed in the same fixative for 4 hours. The brain tissues were cryoprotected by infiltration with 30% sucrose overnight. Cornoy fixed specimens were cut into 30 μm sections on a cryostat. The sections were sequentially stained by Cresyl violet dye.
Images of staining in the hippocampus of each animal were captured with an Applescanner. […] All data obtained from the quantitative data were analyzed using one-way ANOVA to determine statistical significance. Bonferroni's test was used for post-hoc comparisons. P values below 0.05 or 0.01 were considered statistically significant.

[3] = Acute toxicity LD50 in rats; details: rat, in vivo
[4] = even in the presence of an excess of glutathione (GSH); cited from earlier work
rats = details: oral administration; cited from earlier work
mice = details: oral administration; cited from earlier work

Row | SMILES | IC50 [1] [µM] | also measured
1 | Cc1cc(C(=O)Nc2ccccn2)cc(C)c1O [Example 6, 4-Hydroxy-3,5-dimethyl-N-pyridin-2-yl-benzamide] | 122 | –
2 | CC(C)(C)c1cc(C(=O)Nc2nccs2)cc(C(C)(C)C)c1O [Example 4, 3,5-Di-tert-butyl-4-hydroxy-N-thiazol-2-yl benzamide] | 9.69 | protective effect [2]: 91%; neuroprotective effects against ischemic neuronal degeneration compared with Ebselen [2]: more neuroprotective effects against ischemic neuronal degeneration than those of Ebselen; LD50 ([3]; ip, intraperitoneal administration in rats): ≥ 800 mg/kg; LD50 ([3]; oral administration in rats): ≥ 6950 mg/kg
3 | O=c1c2ccccc2[se]n1-c1ccccc1 [Ebselen] | – | solubility in water [4]: very little soluble in water; LD50 (rats): ≥ 6,810 mg/kg; protective effect [2]: 69%; LD50 (mice): ≥ 6,810 mg/kg
4 | Cc1cc(C(=O)NCc2ccccn2)cc(C)c1O [Example 7, 4-Hydroxy-3,5-dimethyl-N-pyridine-2-yl methyl benzamide] | 300 | –

Further lines, with some results ahead:

Row | IC50 [1] [µM] | SMILES | also measured
5 | 11.9 | CC(C)(C)c1cc(C(=O)Nc2ccccn2)cc(C(C)(C)C)c1O [Example 1, 3,5-Di-tert-butyl-4-hydroxy-N-pyridin-2-yl-benzamide] | –
6 | 12.7 | CC(C)(C)c1cc(C(=O)NCc2ccccn2)cc(C(C)(C)C)c1O [Example 2, 3,5-Di-tert-butyl-4-hydroxy-N-pyridin-2-yl methyl benzamide] | –
7 | 11.1 | CCOC(=O)c1csc(NC(=O)c2cc(C(C)(C)C)c(O)c(C(C)(C)C)c2)n1 [Example 5, 2-(3,5-Di-tert-butyl-4-hydroxy-benzoylamino)-thiazole-4-carboxylic acid ethyl ester] | –
8 | 10.2 | Cc1c(C)c2c(c(C)c1O)CCC(C)(C(=O)O)O2 (stereo not shown) [Trolox, reference compound] | –
9 | 7.79 | CC(C)(C)c1cc(C(=O)Nc2ccc(O)c3ncccc23)cc(C(C)(C)C)c1O [Example 3, 3,5-Di-tert-butyl-4-hydroxy-N-(8-hydroxyyquinolin-5-yl) benzamide] | –
